Test results: PubChem BioAssay (NCI)
“And” between values parts separate entries of the source, which are not always exact repeats. Equal entries are not always repeated.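 Briefly, cells in 96-well plates were exposed to five compound concentrations for 48 h, and endpoints were estimated by linear interpolation. GI50 = concentration required for 50% inhibition of growth. Definition used: TGI = concentration required for complete inhibition of growth.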

Key:
Assay in all cases: NCI-60 cell line screen, 48 h
T-47D breast = system: T-47D breast
DU-145 prostate = system: DU-145 prostate
MDA-MB-435 = system: MDA-MB-435
MDA-MB-231 breast = system: MDA-MB-231 breast
HS 578T breast = system: HS 578T breast
MDA-N = system: MDA-N

Structure (SMILES)	GI50 (T-47D breast) [µM]	TGI (T-47D breast) [µM]	GI50 (DU-145 prostate)	TGI (DU-145 prostate) [µM]	GI50 (MDA-MB-435) [µM]	TGI (MDA-MB-435) [µM]	GI50 (MDA-MB-231 breast) [µM]	TGI (MDA-MB-231 breast) [µM]	GI50 (HS 578T breast) [µM]	TGI (HS 578T breast) [µM]	GI50 (MDA-N) [µM]	TGI (MDA-N) [µM]
COCCn1cc(-c2csc(-c3c[nH]c4ccccc34)n2)c2cccnc21	0.418	> 100	15.4 µM	> 100	0.863	5.25	5.05	> 100	9.14	> 100		
N#Cc1c(C(=O)c2ccccc2)cnn1-c1ccccc1	> 25	> 25	> 25 µM	> 25	> 25	> 25	> 25	> 25	> 25	> 25		
Cc1ccc(C(CN(C)C)C(=O)c2ccccc2)cc1 (stereo unspecified)	2.35	12.7	1.93 µM	5.12	2.45	8.92	2.64	7.07	4.7	33.6		
CC12CCC3C(CC=C4CC(O)CCC43C)C1C/C(=C\N1CCCC1)C2=O (stereo unspecified)	30.2	> 100	> 100 µM	> 100	> 100	> 100	40.8	> 100	60.8	> 100		
CC(=O)O[C@H]1C(=O)[C@@]2(C)C(C(OC(=O)c3ccccc3)[C@]3(O)CC(OC(=O)[C@H](OC(=O)CCC(=O)O)C(NC(=O)c4ccccc4)c4ccccc4)C(C)=C1C3(C)C)C1(OC(C)=O)COC1C[C@@H]2OC(=O)CCC(=O)O (stereo partly specified)		> 100			0.189	0.495					0.253	1.21
C[C@]12CCC3[C@@H](C[C@@H]4SC(Nc5ccccc5)=N[C@@]45CC(=O)CC[C@]35C)[C@@H]1CCC2=O (stereo partly specified)	3.5	> 100	4.34 µM	40.9	3.48	> 100	13.4	> 100	12	> 100		
COc1ccccc1-[n+]1cc(-c2ccc(-c3ccccc3)cc2)n2c1CCCCC2	0.0774	11.9	0.444 µM	14.8	0.27	3.6	0.276	2.39	1.07	31.8		
C[C@@H]1C=C(CCCCCCCCCCC[C@H](O)[C@@H]2CCC(=O)O2)C(=O)O1	32.7	65.2	24.1 µM	> 100	24.3	60.2	19.4	88.7				
Cc1ccc2c(c1)nc(C(=O)c1ccco1)c(C(F)(F)F)[n+]2[O-]	50.3	> 100	> 100 µM	> 100	> 100	> 100	> 100	> 100	2.33	5.76		
c1ccc(Cc2nc3ccc(Nc4ncnc5ccccc45)cc3[nH]2)cc1	> 25	> 25	> 25 µM	> 25	> 25	> 25	> 25	> 25	> 25	> 25		
O=C(O)c1ccc2c(c1)Cc1cc([N+](=O)[O-])ccc1-2		> 100		> 100		> 100		> 100		> 100		
N[C@@H](Cc1c[nH]c2ccccc12)C(=O)NC1CCN(C(=O)c2c[nH]c3ccccc23)CC1	74.5	> 100	72.2 µM	> 100	> 100	> 100	75.4	> 100	71.3	> 100		
Cc1c(C#N)cccc1-c1cc(-c2cn(Cc3cccc(C(C)(C)O)n3)nn2)nc(N)n1	6.9	62.5	37.1 µM	> 100	26.8	> 100	15.7	> 100	25.6	> 100		
CCCCn1c2cc(OCc3cn(-c4ccc(Cl)cc4)nn3)ccc2c2ccnc(C)c21	4.3	15	15.2 µM	> 33.3	9.47	> 33.3	7.26	24.6	7.09	32.1		
Oc1ccc(/C=N\Nc2ccccn2)c(O)c1	2.41	> 100	0.422 µM	4.32	1.37	> 100			4.99	> 100		
C(=N\Nc1ccccn1)/c1ccccn1	0.332	> 100	0.324 µM		0.483	> 100	0.501	> 100	1.41	> 100		

Structure (SMILES)	GI50 (T-47D breast) [µM]	TGI (T-47D breast) [µM]	GI50 (DU-145 prostate)	TGI (DU-145 prostate) [µM]	GI50 (MDA-MB-435) [µM]	TGI (MDA-MB-435) [µM]	GI50 (MDA-MB-231 breast) [µM]	TGI (MDA-MB-231 breast) [µM]	GI50 (HS 578T breast) [µM]	TGI (HS 578T breast) [µM]	GI50 (MDA-N) [µM]	TGI (MDA-N) [µM]
O=C(/C=C/c1cccnc1)NCCCCC1CCN(C(=O)c2ccccc2)CC1	1.93	> 90.3	0.0234 µM and < 0.0315 µM	> 100	< 0.01	> 100	> 100	> 100	> 100	> 100		
Cc1ccc(C(=O)Nc2ccc(CN3CCN(C)CC3)c(C(F)(F)F)c2)cc1C#Cc1cnc(N)cc1C#N	0.605	8.71	0.127 µM	0.838	0.0721	0.659	0.112	0.621	0.143	1.33		
C=C1C(=O)O[C@H]2[C@H]1CC/C(COC(=O)NCc1cc3ccccc3[nH]1)=C\CC[C@@]1(C)O[C@@H]21	1.8	4.33	1.52 µM	2.93	1.75	3.48	1.65	3.57	2.8	15.6		
O=C1CCC(Cc2ccc(Cl)cc2Cl)C(=O)N1 (stereo unspecified)		> 100		> 100		> 100		> 100		> 100		
O=Cc1c(-c2cc(O)ccc2O)nc2sccn12	12.3	> 100	22.6 µM	49.2	15.6	34.2	12	31.4	35.7	> 100		
C1CC[N-]CC1.C1CC[N-]CC1.C1CC[N-]CC1.C1CC[N-]CC1.[Cl][Rh][Cl]	3.87	> 100	6.3 µM	53.8	4.09	32.4	21.5	> 100	3.95	54.8		
O=c1cccc(C#CC#C[C@H]2O[C@@H]2CO)o1	0.401	1.47	1.56 µM	3.24	0.474	1.21	0.419	1.02	2.91	9.69		
Nc1ccccc1C#C/C=C\C#Cc1ccccc1C(F)(F)F	19.4	61.2	2.7 µM	14.7	0.355	1.3	0.274	2.73	1.26	25.2		
CC1=C([Se]CC(OC(=O)CC[Se]c2ccccc2)C(=O)NCCCCCC(=O)OCc2ccccc2)C(=O)c2ccccc2C1=O (stereo unspecified)	2.2	8.21	3.64 µM	11.4	2.45	7.45	1.95	4.94	2.47	34.2		
OCc1cn(Cc2cccc(Cl)c2)c2ccccc12	< 0.0208	5.15	11.6 µM	47.8	14.8	35.5	8.37	31.7	9.27	33.7		
CC(C)(C)N1CCC1C(N)=O (stereo unspecified)	> 100	> 100	> 100 µM	> 100	> 100	> 100	> 100	> 100	> 100	> 100		
CC(=O)OC[C@H]1O[C@@H](n2ccc(=O)[nH]c2=O)[C@H](OC(C)=O)[C@@H]1OC(C)=O	> 100	> 100	> 100 µM	> 100	> 100	> 100	> 100	> 100	> 100	> 100		
OCCCCC#Cc1ccccc1C#Cc1ccccc1	7.53	> 100	5.22 µM	20.2	13.7	27.2	4.29	14.1	15.6	39.6		
CC[C@]1(O)CC2CN(CCc3c([nH]c4ccccc34)[C@@](C(=O)OC)(c3cc4c(cc3OC)N(C)[C@H]3[C@@](O)(C(=O)OC)[C@H](OC(C)=O)[C@]5(CC)C=CCN6CC[C@]43[C@@H]65)C2)C1 (stereo partly specified)			< 0.005 µM	0.0282	< 0.005	< 0.005	< 0.005	0.417	< 0.005	10.2		
COc1ccc(/C=C/C(=O)c2cc3c(N)c(C(=O)Nc4ccccc4Cl)sc3nc2C)cc1	2.95	> 50	2.78 µM	> 50			2.22	20.3	0.937	4.56		
CN(C)CCCn1c2c(c3cnccc3c1=O)C(=O)c1ccccc1-2	0.509	6.99	0.49 µM	3.43	0.49	2.48	0.623	3.1	1.04	7.53		
